Activity calls are given as the source filed them. Cut-off read from the data, not from the text of the source, for most assays here: actives have a measured IC50 and inactives only a lower limit.
Key:
Caspase-3 = target: T1, Caspase-3 (Homo sapiens, UniProt P42574); format: functional;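 note: Dose-response selectivity test against caspase-3 for candidate inhibitors of sentrin-specific proteases (SENPs)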
T1 sequence (P42574 whole entry): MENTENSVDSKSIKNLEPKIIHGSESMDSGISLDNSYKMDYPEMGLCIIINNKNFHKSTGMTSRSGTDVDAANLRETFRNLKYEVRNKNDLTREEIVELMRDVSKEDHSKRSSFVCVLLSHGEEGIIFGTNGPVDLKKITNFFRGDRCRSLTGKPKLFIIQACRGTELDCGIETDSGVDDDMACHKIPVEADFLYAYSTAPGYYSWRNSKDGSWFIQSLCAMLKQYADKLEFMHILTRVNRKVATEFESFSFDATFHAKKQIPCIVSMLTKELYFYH

[1] = target: T2, Sentrin-specific protease 7 (Homo sapiens, UniProt Q9BQF6); format: functional;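 note: Luminescence-based dose-response confirmation of ultra-high-throughput screening hits, measuring inhibition of SENP7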
T2 sequence (Q9BQF6 whole entry): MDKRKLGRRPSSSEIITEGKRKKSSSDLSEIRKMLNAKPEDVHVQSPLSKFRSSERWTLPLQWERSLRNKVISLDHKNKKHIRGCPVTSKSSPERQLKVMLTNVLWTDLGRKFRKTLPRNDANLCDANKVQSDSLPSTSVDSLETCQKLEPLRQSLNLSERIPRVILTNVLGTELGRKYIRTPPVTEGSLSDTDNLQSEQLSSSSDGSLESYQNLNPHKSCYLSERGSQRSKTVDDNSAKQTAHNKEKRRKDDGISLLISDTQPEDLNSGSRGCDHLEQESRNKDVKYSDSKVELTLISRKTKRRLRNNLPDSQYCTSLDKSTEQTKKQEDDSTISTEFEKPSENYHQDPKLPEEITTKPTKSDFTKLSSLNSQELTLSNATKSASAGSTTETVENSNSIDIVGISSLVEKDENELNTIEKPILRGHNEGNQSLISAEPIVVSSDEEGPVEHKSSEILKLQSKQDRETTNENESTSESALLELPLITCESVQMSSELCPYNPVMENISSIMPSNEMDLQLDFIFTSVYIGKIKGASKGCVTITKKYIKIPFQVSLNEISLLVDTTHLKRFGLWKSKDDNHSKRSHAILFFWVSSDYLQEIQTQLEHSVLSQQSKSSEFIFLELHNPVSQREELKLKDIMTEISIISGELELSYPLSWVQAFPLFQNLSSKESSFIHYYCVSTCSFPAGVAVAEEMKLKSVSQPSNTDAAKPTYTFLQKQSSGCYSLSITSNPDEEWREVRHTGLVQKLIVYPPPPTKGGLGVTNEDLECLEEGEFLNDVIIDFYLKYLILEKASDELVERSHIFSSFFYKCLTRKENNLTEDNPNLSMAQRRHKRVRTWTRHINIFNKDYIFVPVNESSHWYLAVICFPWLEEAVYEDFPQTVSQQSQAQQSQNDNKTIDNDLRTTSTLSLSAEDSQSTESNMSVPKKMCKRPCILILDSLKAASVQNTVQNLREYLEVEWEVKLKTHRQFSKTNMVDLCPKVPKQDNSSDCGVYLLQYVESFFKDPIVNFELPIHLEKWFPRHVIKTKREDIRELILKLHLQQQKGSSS

[2] = target: T3, Sentrin-specific protease 6 (Homo sapiens, UniProt Q9GZR1); format: functional;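 note: Luminescence-based dose-response confirmatory assay of SENP6 inhibition, following up an ultra-high-throughput screen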
T3 sequence (Q9GZR1 whole entry): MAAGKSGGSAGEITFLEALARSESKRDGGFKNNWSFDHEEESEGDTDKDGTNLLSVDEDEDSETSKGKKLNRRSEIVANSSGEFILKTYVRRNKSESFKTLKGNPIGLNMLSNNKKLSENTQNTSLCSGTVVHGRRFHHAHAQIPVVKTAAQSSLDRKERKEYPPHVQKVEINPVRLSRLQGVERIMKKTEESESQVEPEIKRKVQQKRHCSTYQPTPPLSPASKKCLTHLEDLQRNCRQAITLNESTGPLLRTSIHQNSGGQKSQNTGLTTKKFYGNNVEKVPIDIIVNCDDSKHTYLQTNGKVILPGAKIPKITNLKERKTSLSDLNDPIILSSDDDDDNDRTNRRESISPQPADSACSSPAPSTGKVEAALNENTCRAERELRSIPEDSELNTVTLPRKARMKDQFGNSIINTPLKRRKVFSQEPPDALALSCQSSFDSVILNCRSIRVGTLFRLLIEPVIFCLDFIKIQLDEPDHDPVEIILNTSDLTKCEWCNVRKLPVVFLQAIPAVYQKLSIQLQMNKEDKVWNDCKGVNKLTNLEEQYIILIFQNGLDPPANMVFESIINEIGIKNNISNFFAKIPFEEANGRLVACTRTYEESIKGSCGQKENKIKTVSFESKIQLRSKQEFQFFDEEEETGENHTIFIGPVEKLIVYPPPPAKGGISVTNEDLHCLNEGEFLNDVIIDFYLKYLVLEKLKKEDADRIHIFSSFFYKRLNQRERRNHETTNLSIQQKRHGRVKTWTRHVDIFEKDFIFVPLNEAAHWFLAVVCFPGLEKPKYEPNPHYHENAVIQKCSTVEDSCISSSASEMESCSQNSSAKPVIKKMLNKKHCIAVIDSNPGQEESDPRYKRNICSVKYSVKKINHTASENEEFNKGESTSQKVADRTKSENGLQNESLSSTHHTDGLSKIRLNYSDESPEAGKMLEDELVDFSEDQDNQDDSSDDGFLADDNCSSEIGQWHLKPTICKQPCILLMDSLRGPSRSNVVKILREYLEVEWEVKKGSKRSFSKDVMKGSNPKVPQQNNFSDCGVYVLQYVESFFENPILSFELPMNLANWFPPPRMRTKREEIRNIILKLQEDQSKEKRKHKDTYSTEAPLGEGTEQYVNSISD

[3] = target: T4, Sentrin-specific protease 8 (Homo sapiens, UniProt Q96LD8); format: functional;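 note: luminescence read-out of SENP8 inhibition, dose-response confirmation following an ultra-high-throughput screen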
T4 sequence (Q96LD8 whole entry): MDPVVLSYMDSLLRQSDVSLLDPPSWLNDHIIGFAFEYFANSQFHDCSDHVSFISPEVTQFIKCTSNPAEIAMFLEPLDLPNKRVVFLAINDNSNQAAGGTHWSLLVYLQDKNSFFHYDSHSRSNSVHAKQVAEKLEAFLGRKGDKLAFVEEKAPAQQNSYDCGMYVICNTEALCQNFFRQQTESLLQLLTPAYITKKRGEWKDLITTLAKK

[4] = target: T5, DNA repair and recombination protein RAD54-like (Homo sapiens, UniProt Q92698); assay: inhibitors of human RAD54 branch migration, confirmation, biochemical, fluorescence, cherry-picked samples, dose series (AID 651657); format: functional
T5 sequence (Q92698 whole entry): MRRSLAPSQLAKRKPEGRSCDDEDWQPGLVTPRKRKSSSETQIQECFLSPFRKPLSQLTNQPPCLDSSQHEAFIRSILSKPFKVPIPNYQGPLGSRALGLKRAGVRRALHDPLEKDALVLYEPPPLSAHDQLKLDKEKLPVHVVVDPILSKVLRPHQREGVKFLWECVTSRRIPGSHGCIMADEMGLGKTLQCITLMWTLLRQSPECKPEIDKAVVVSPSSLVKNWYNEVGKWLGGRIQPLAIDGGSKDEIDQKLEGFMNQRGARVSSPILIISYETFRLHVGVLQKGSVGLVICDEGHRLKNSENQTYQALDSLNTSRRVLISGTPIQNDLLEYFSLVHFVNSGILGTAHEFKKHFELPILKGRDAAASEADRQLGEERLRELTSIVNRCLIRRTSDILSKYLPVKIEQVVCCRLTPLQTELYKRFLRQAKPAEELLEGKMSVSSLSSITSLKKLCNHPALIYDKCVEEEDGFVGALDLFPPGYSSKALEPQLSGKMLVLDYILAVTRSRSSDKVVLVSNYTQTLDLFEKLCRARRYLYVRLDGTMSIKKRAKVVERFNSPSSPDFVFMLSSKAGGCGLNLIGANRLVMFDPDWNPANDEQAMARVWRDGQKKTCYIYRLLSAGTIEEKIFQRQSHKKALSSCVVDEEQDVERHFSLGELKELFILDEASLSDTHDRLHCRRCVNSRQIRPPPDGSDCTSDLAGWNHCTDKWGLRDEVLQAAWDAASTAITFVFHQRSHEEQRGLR

[5] = target: T6, Heat shock factor protein 1 (Mus musculus, UniProt P38532); assay: HSF1 potentiators in luciferase reporter cells, confirmation, cell-based, NIH3T3, luminescence, dose retest (AID 435004); format: functional;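 note: stress induced by proteasome inhibitor MG132 added 30 min after compound; luciferase reporter driven by HSF1 response element in NIH3T3 cells; actives raise luminescence as potentiators of the MG132 stress response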
T6 sequence (P38532 whole entry): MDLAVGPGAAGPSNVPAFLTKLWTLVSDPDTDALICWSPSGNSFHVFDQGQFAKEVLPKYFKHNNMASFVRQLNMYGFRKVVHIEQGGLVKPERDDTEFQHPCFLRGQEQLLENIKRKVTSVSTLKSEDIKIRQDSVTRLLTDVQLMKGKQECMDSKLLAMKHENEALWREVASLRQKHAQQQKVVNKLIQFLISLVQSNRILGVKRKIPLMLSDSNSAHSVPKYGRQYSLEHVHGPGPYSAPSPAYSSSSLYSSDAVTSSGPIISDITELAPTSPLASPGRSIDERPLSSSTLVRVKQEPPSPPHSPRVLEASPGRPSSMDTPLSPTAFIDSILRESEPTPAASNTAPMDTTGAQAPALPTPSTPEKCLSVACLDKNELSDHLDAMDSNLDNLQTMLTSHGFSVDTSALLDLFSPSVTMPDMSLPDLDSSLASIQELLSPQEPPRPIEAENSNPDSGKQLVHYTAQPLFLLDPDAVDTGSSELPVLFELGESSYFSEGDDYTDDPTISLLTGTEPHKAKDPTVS

Cytochrome P450 2D6 = Cytochrome P450 2D6 (Homo sapiens, UniProt P10635);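 note: CYP2D6 member of a cytochrome P450 panel assay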
Chain of Cytochrome P450 2D6 (P10635 whole entry): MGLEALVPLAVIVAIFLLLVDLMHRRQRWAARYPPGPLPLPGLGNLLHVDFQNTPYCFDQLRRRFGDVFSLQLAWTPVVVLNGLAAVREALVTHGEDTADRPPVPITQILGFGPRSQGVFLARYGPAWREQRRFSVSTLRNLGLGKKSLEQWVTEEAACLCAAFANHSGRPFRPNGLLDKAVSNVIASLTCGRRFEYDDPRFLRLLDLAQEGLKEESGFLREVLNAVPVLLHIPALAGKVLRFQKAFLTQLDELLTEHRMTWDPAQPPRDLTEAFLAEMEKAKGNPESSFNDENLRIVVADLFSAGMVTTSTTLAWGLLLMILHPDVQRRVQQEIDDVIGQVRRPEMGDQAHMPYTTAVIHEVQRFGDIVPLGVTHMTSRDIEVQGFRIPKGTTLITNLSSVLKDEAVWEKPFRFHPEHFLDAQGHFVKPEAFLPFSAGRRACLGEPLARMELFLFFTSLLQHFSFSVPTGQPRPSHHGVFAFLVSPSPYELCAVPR

Compound	IC50 (Caspase-3)	IC50 [1]	IC50 [2]	AC50 [4]	EC50 [5]	AC50 (Cytochrome P450 2D6)	IC50 [3]
CCOC(=O)Nc1ccc(C(=O)Oc2ccccc2)c(O)c1	61.3 µM (active)	11.6 µM (active)	47.6 µM (active)		49.2 µM (active)	25.1 µM (inconclusive)	79.9 µM (active)
O=C(Nc1cccc(Cl)c1)c1cc(S(=O)(=O)N2CCOCC2)cs1				30.1 µM (active)			
COc1ccc(/C(C)=N/OCC(=O)Nc2nc3ccccc3s2)cc1OC	49.3 µM (active)	9.91 µM (active)	36.1 µM (active)				62.2 µM (active)

Continued, in another order:

IC50 (Caspase-3)	IC50 [1]	IC50 [2]	AC50 [4]	EC50 [5]	AC50 (Cytochrome P450 2D6)	Compound	IC50 [3]
30.8 µM (active)	5.64 µM (active)	9.82 µM (active)				CCOc1ccccc1NC(=O)Nc1ccc2c(c1)CCC2	9.29 µM (active)
			8.93 µM (active)			CN1CCN(c2nc(-c3cccs3)nc3ccccc23)CC1	
18.6 µM (active)	10.1 µM (active)	30.7 µM (active)				CSc1ccccc1NC(=O)c1cc(C2CC2)on1	33.3 µM (active)

Reference: ChEMBL document CHEMBL1201862, “PubChem BioAssay data set” (2004)
